Type in all cases: cell-based
In assay [1] the test system is SK-Br-3 (p53-mutant) cells. Briefly: Clonogenic survival assay after DNA damage, SK-Br-3 cells expressing Arm1 or control shRNA. Conditions: for cells surviving: 0.0025% MMS; for survival: 0.5 mM DOX. The procedure:
(§1) MCF7 and SK-Br-3 cells were obtained from ATCC and maintained in DMEM or McCoys 5A supplemented with 10% FBS and antibiotics at 37° C., 5% CO2. A human Flag-tagged Arm1, Rev1, and p21 expression construct (Origene) were transiently transfected into SK-Br-3 cells with Fugene 6 (Roche) and extracts generated after 24 h. Lentiviral shRNA particles were obtained from Open Biosystems and stably expressing clones selected with puromycin and confirmed by GFP expression and Q-PCR (FIG. 10). […] Surviving colonies were stained with methylene blue and counted 2 weeks after treatments.
(§2) The results from this example are shown in FIG. 3. a, Arm1 promotes PCNA methyl esterification following DNA damage. PCNA was analyzed by 2D-PAGE immunoblotting in SK-Br-3 and MCF7 cells expressing Arm1 or non-targeting (control) shRNA in the absence of DNA damage or 4 h following Dox treatment or UV irradiation. b, PCNA-dependent methyltransferase activities are alter in shRNA expressing SK-Br-3 and MCF7 cells. WCE were assayed for PCNA-dependent carboxyl methyltransferase activity in the presence of His-PCNA ([…]) and average activities shown (±S.E.M.). Significance was determined using a two-tailed t-test. c, DNA damage sensitivity in Arm1 knockdown cells is related to p53 status. MCF7 (p53 wild-type) and SK-Br-3 (p53-mutant) cells were exposed to increasing levels of Dox and UV and survival determined by clonogenic survival. Average results from three independent experiments are presented ±SD. d, Arm1 knockdown promotes DNA repair. DNA repair rates were determined in shRNA expressing SK-Br-3 and MCF7 cells using host cell reactivation assay. Cells were transfected with UV-irradiated reporter plasmids and average repair rates were determined after 24 h. Average results from independent experiments are presented (±S.E.M.). Significance was determined with a two-tailed t-test.
In addition to PCNA modification in knock-down cells, we examined cell survival following DNA damage (FIG. 4b). […] In MCF7 cells with knocked-down Arm1 expression 47% of cells survived 0.5 mM DOX compared to 15% survival in the control cells (FIG. 4b). Similar results were consistently observed in response to UV with 39% of the Arm1 knock-down cells surviving 25 J/m^2 compared to 19% in the control. […] Additionally, because ˜50% of tumours harbour p53 mutations and knock-down of Arm1 expression in p53-mutant breast tumours appeared to sensitize the cells to DNA damage, inhibition of Arm1 may ultimately allow us to more effectively target tumour cells.

The test system of assay [2] is MCF7 (p53 wild-type) cells. Kind of assay: Clonogenic survival assay after DNA damage, MCF7 cells expressing Arm1 or control shRNA. The procedure: as §1, §2
In addition to PCNA modification in knock-down cells, we examined cell survival following DNA damage (FIG. 4b). […]

A further assay relates to p21^WAF1/CIP1. Kind of assay: p21 expression in Dox-treated MCF7 cells (SDS-PAGE, immunoblot). Conditions: MCF7 cells following Dox treatment. The procedure: The results from this example are shown in FIG. 2. a, Doxorubicin (Dox) promotes PCNA methyl esterification in MCF7 cells. Whole cell extracts (WCE) from cultures treated with Dox ([…]) were resolved by 2D-PAGE followed by PCNA immunoblotting (IB). The basic-shifted PCNA isoform (ME-PCNA) is identified with an arrow. b, PCNA-dependent methyltransferase activity is altered following Dox treatment. Dox treated MCF7 WCE were assayed for PCNA-dependent activity in triplicate using the vapour diffusion assay, and average activities are presented ±S.E.M. Significance was determined using a two-tailed t-test. c, Dox induces p21 expression in MCF7 cells. Extracts were separated by SDS-PAGE and immunoblotted for p21^Waf1/Cip1. d, p21 binding promotes PCNA methyl esterification. Untreated MCF7 extracts were incubated with GST, GST-p21 (full-length), and GST-p21(PIP) proteins bound to glutathione Sepharose for 2 h at 4° C. prior to 2D-PAGE and PCNA immunoblotting. e The p21-induced basic shift is a result of PCNA methyl esterification. p21(PIP) peptide was covalently coupled to CH-Sepharose and used to affinity purify PCNA from MCF7 whole cell extracts. Purified fractions were separated by 2D-PAGE and stained with colloidal Coomassie blue. Spots were excised from the gel, digested with trypsin, and analyzed by LC-MS/MS. […]
(In general: In western blotting, separated proteins are transferred to a membrane and probed.)

Take `COS(C)(=O)=O` [MMS]: the figures for the cells surviving in assay [1] (SK-Br-3 Arm1 knock-down cells) and in assay [1] (SK-Br-3 control cells) were 4% and 12%, respectively. Moreover, the “survival of Arm1 knock-down cells compared to control cells” value in assay [2] (MCF7 Arm1 knock-down cells, response to MMS) is “enhanced survival”.
Take `COc1cccc2c1C(=O)c1c(O)c3c(c(O)c1C2=O)C[C@@](O)(C(=O)CO)C[C@@H]3O[C@H]1C[C@H](N)[C@H](O)[C@H](C)O1` [DOX, doxorubicin]: the survival in assay [1] (SK-Br-3 cells with knock-down of Arm1 expression) was determined as 3%; in assay [1] (SK-Br-3 control cells), 18%; in assay [2] (MCF7 control cells, 0.5 mM DOX), 15%. The compound further came in with a cells survived in assay [2] (MCF7 cells with knocked-down Arm1 expression, 0.5 mM DOX) of 47%. Further, in the assay with p21^WAF1/CIP1, the “increased expression of p21^WAF1/CIP1” value is over 27 fold.

The values are drawn from US20130177546A1, “METHOD FOR ENHANCING EFFICACY AND SELECTIVITY OF CANCER CELL KILLING BY DNA DAMAGING AGENTS” (MAINE INSTITUTE FOR HUMAN GENETICS AND HEALTH, priority 2011, published 2013).
